One assay deals with rabbit platelets. The assay is described as follows: PAF-induced aggregation of rabbit platelets. Particulars: Oryctolagus cuniculus, Platelet, read-out: % Inhibition at 80 μM. Type of assay: cell-based. The text has this: Within the present invention, it was discovered that the polyhydroxylated steroids as well as intermediates described in previous sections inhibited the aggregation of platelets caused by platelet activating factor (PAF). PAF is a local mediator of thrombosis and prevention of the formation of blood clots has direct implication in the treatment of thrombosis and associated cardiovascular diseases. The assay system used to evaluate the ability of compounds to inhibit the aggregation of platelets in response to exogenous stimuli is indicative of anti-thrombotic or thrombolytic activity.
Platelets were isolated from rabbit blood and prepared at a density of 2.4×10^8 cells/ml in Tyrodes buffer (pH 7.2) containing Ca^2+. Platelets were incubated with each compound for 5 min at 37° C. prior to stimulation. Platelets were stimulated with 1 nM platelet activating factor (PAF; EC75) in the presence of each of the compounds and aggregation was monitored for 5 min. Compounds were solubilized in dimethylsulfoxide (DMSO) and aggregation was measured as a percentage of the response to 1 nM PAF obtained in the presence of the appropriate concentration of DMSO. The degree of inhibition caused by each sample was calculated using the control response in the presence of DMSO equal to 100%.

In the next assay the test system is isolated trachea. Also on record: species or system guinea pig. The note with it: compound 20 μM. Here is the method:
The effects of a number of the compounds described herein on allergen-induced bronchoconstriction were evaluated for anti-asthma activity. The ability of a compound to inhibit allergen-induced decreases in lung function in sensitized guinea pigs in response to antigen-challenge is indicative of anti-asthma activity. In particular, the model system is useful in the evaluation of the potential effects of a compound in the treatment of the early asthmatic reaction (EAR) when severe bronchoconstriction occurs.
Guinea pigs were exposed to a nebulized solution of 1% ovalbumin (OA) in saline for 15 min. […] Tracheal rings were prepared and bathed in Krebs-Henseleit solution at 37° C. and aerated with 5% CO2 in […]. Tissues were suspended under a resting tension of 2 g and isometric contractions were measured using force-displacement transducers coupled to a polygraph. Tissues were incubated with each compound or 0.1% dimethylsulfoxide (as a control) for 20 min, after which increasing concentrations of OA (0.001-100 μg/ml) were added to the tissue. After the final concentration of OA was added and the response was recorded, the tissues were stimulated with 100 μM methacholine which caused maximum contraction of the trachea. The magnitude of the contraction induced by OA in the presence of each compound was expressed as a percentage of the maximum contraction obtained using methacholine (100 μM).

Assay [1] concerns passively sensitized rat mast cells (RBL-2H3). The assay is described as follows: antigen-induced release of hexosaminidase from RBL-2H3 cells. It counts as cell-based. The note with it: Rattus norvegicus. Here is the method:
(§1) The anti-allergic effects of various polyhydroxylated steroids of the present invention were evaluated by measuring their effect on antigen-induced secretion of hexosaminidase from a passively sensitized rat mast cell line (RBL-2H3) and a murine mast cell line (MC/9). The ability of agents to inhibit the release of mast cell granule contents, e.g., histamine and hexosaminidase, is indicative of anti-allergy and/or anti-asthma activity.
(§2) Hexosaminidase is released from the mast cell granule along with histamine and other mediators during antigen challenge. RBL-2H3 and MC/9 cells were grown in culture and passively sensitized to dinitrophenol (DNP) using anti-human-DNP (IgE). Cells were incubated with each compound (25 μM) for 1 hour at 37° C. and then stimulated with 0.1 mg/ml DNP-HSA (antigen) for 15 min. Aliquots of the supernatant were removed and used to measure the amount of hexosaminidase released during challenge with the antigen. The amount of hexosaminidase present in the supernatant was determined calorimetrically by monitoring the enzymatic metabolism of p-nitrophenyl-N-acetyl-β-D-glucosaminide (p-NAG) over a period of 1 hour at 410 nm. The effect of each compound was determined as a percentage of the antigen-induced response (minus background release) obtained in the presence of DMSO alone, as set forth in Tables 2 and 3. These values were used to determine the degrees of inhibition of antigen-induced hexosaminidase release from the cells.

The next assay relates to guinea pig ileum. The assay is described as follows: antigen-induced contraction of ileum from sensitized guinea pigs. Particulars: Cavia porcellus, read-out: Percentage Inhibition, 30 μM compound, n = 3-4. On the procedure:
The ability of compounds to inhibit allergen-induced contraction of ileum from sensitized animals is indicative of antiallergic activity. Sensitized guinea pig ileum is particularly useful in measuring the immediate allergic response.
The guinea pig ileum has been used to evaluate the ability of compounds to inhibit allergan-induced histamine and mediator release causing smooth muscle contraction. Guinea pigs were sensitized by an intraperitoneal injection of 100 mg ovalbumin and an intramuscular injection of 50 mg ovalbumin on day 0, followed by a second intramuscular injection of 50 mg ovalbumin on day 1. […] Segments of ileum were prepared and suspended, with muscle contractions being measured in the longitudinal plane, in Tyrode's buffer at 37° C. and aerated with 5% CO2 in O2. Tissues were suspended under a resting tension of 2 grams and isometric contractions were measured using force-displacement transducers coupled to a polygraph. Tissues were stimulated with 3 μM histamine 3 times to ensure reproducible contractions were obtained. Tissues were then incubated with each compound (30 μM) or 0.15% dimethylsulphoxide (DMSO) as a control, for 20 min, after which time the tissues were challenged with 100 μg/ml ovalbumin. The magnitude of the contraction induced by OA in the presence of each compound was expressed as a percentage of the contraction obtained to 3 μM histamine. The protective effects of the various compounds on OA-induced contraction of guinea pig ileum from sensitized animals are summarized in Table 4.

In another assay the test system is sensitized guinea pigs. The assay is described as follows: allergen-induced changes in lung resistance and compliance in vivo. Set-up: species or system guinea pig. Particulars: 5 mg/kg/day for 4 days p.o. On the procedure:
Female Cam Hartley guinea pigs (350-400 g) are sensitized to ovalbumin by exposure of the guinea pigs to a nebulized solution of 1% ovalbumin in saline for 15 minutes. After 10-12 days, the animals are found to be acutely sensitized to the allergen (ovalbumin). Animals are treated by oral gavage, under light halothane anesthesia, with 300 μl polyethyleneglycol-200 (PEG) or 5 mg/Kg of test compound in 300 μl of PEG. Animals are treated once daily for 4 days with the final dose administered 2 hours prior to allergen challenge. Alternatively, compounds were delivered by inhalation, using a Hudson nebulizer driven by 6 psi oxygen, providing a single dose of 50 μg/Kg 20 min prior to challenge.
An animal is anaesthetized using ketamine ([…]; i.p.) and xylazine (10 mg/Kg; i.p.) and 1% halothane during the surgical procedure. A tracheostomy is performed and a water-filled esophageal cannula is inserted prior to positioning the animal in a body plethysmograph. The tracheal cannula is attached to a fixed tracheal cannula in the plethysmograph. Cardiac function is monitored using electrocardiography. The animal is paralyzed using pancuronium bromide (0.8 mg/Kg; i.m.) and ventilated with 3 ml tidal breaths using a Harvard small animal ventilator, at a frequency of 60 breaths per minute. Pulmonary resistance and dynamic lung compliance data are obtained from volume, flow and transpulmonary pressure signals using multipoint analysis.
Pulmonary function is continually monitored throughout the experiment and measurements of lung resistance and lung compliance are made at various time-points (e.g., 0, 1, 2, 3, 4, 5, 10, 20 and 30 min) following antigen challenge. Data is collected on a computer-linked physiological measurement system using DIREC Physiological recording software and analyzed using ANADAT software designed for lung mechanics measurements. This software was obtained from RHT-InfoDat Inc., Montreal, Quebec, Canada.
Once baseline resistance and compliance measurements are obtained, the animal is challenged with 6 breaths of saline. After 10 minutes, during which time no alterations in lung function should occur, the animal is challenged with 6 breaths of 2 or 3% ovalbumin in saline (as the antigen stimulus). Saline and antigen are delivered in each breath using a Hudson nebulizer.

The test system of another assay is mouse mast cells (MC/9). The assay is described as follows: antigen-induced release of hexosaminidase from MC/9 cells. It counts as cell-based. The note with it: Mus musculus, MC9, 25 μM compound, read-out: Percentage Inhibition (mean) MC/9 cells. On the procedure:
as §1, §2

The next assay concerns NF-κB. The experiment in a line: NF-κB gel shift binding assay in TPA-stimulated RBL-2H3 cells. Type of assay: cell-based. Particulars: Rattus norvegicus, compound 1 μM, 2 hours preincubation, read-out: Percent Inhibition of Response to TPA (0.1 μM). (In general: A gel shift assay detects complexes by their altered migration in electrophoresis.)
The mark [2] stands for this setting: RBL-2H3, read-out: Percentage Inhibition (mean) RBL-2H3 Cells.
Where [3] appears, read: RBL-2H3, 25 μM compound, antigen-induced hexosaminidase release, read-out: Percentage Inhibition (mean) RBL-2H3 Cells.

Read-outs that look alike come from different tables or passages of the source.

On to `CC1(C)O[C@@H]2C3=CC(=O)CC[C@]3(C)C3CC[C@]4(C)C(=O)CCC4C3[C@H]2O1` (stereo partly shown) [Compound 8], for which, in the assay with rabbit platelets (80 μM compound, 5 min preincubation, PAF-stimulated rabbit platelets (title: 0.1 nM PAF)), the inhibition at 80 µM came to 11.6%.

Consider `C[C@]12CC[C@@H](O)C[C@@H]1[C@@H](O)[C@H](O)[C@@H]1[C@@H]2CC[C@]2(C)[C@@H](O)CC[C@@H]12` [Compound 327], for which the “percentage contraction compared to 100 μM methacholine” value (shortened to “percentage contraction”) in the assay with isolated trachea (OA 0.01 μg/ml, study 2) was determined as 0%; in the assay with isolated trachea (OA 0.1 μg/ml, study 2), 0%. Moreover, the inhibition at 25 µM in assay [1] (setting [2]) came out at 35.2%.

As for `C[C@]12CC[C@@H](O)C[C@@H]1[C@@H](O)[C@H](O)[C@@H]1[C@@H]2CC[C@]2(C)C(=O)CC[C@@H]12` [Compound 326], the “percentage contraction” value with isolated trachea (OA 0.01 μg/ml, study 2) is 0%.

On to `C[C@]12CCC(=O)C=C1[C@@H](O)[C@H](O)C1C2CC[C@]2(C)C(=O)CCC12` (stereo partly shown) [Compound 7], for which, in assay [1] (setting [2]), the inhibition at 25 µM turned out to be 21.7%. Moreover, the inhibition at 30 µM in the assay on guinea pig ileum is 54%. In addition, the inhibition at 80 µM in the assay on rabbit platelets stood at 12.3%.

In the case of `CC1(C)O[C@@H]2C3C(CC[C@@]4(C)C3CC[C@@H]4O[Si](C)(C)C(C)(C)C)[C@@]3(C)CC[C@H](O)[C@@H](O)C3[C@H]2O1` (stereo partly shown) [Compound 236], the “percentage contraction” value in the assay on isolated trachea (OA 0.01 μg/ml, study 1) is on record as 5.6%; with isolated trachea (OA 0.03 μg/ml, study 1), 5.6%; in the assay with isolated trachea (OA 10.0 μg/ml, study 1), 39%. Moreover, the inhibition at 25 µM in assay [1] (setting [2]) is 31%. Also, the inhibition at 80 µM in the assay on rabbit platelets came out at 100%.

For the molecule `C=C1CCC2C3C(CC[C@]12C)[C@@]1(C)CC[C@H](O)CC1[C@@H](O)[C@@H]3O` (stereo partly shown) [Compound 342], the inhibition at 25 µM is 57% in assay [1] (setting [3]) and 39% in the assay on mouse mast cells (MC/9). In addition, the inhibition at 30 µM in the assay with guinea pig ileum was determined as 28.3%. Also, the “Lung Compliance” value is listed as 0.154 ± 0.055 ml/cm H2O in the assay on sensitized guinea pigs (1 min after challenge); 0.073 ± 0.038 ml/cm H2O in the assay with sensitized guinea pigs (2 min after challenge); 0.044 ± 0.022 ml/cm H2O in the assay on sensitized guinea pigs (3 min after challenge); 0.044 ± 0.022 ml/cm H2O in the assay on sensitized guinea pigs (4 min after challenge); 0.038 ± 0.015 ml/cm H2O in the assay with sensitized guinea pigs (5 min after challenge); 0.048 ± 0.005 ml/cm H2O with sensitized guinea pigs (10 min after challenge). Also, the “Lung Compliance” value in the assay with sensitized guinea pigs (20 min after challenge) was found to be 0.084 ± 0.005 ml/cm H2O; with sensitized guinea pigs (30 min after challenge), 0.109 ± 0.006 ml/cm H2O; in the assay with sensitized guinea pigs (Baseline) it was 0.444 ± 0.037 ml/cm H2O; in the assay on sensitized guinea pigs (OA/10 s) it was 0.464 ± 0.031 ml/cm H2O. For the same molecule, the “Lung Resistance” value in the assay on sensitized guinea pigs (1 min after challenge) came to 0.453 ± 0.120 cm H2O/ml/sec; in the assay on sensitized guinea pigs (2 min after challenge), 1.786 ± 0.82 cm H2O/ml/sec; in the assay on sensitized guinea pigs (3 min after challenge), 1.930 ± 0.55 cm H2O/ml/sec; with sensitized guinea pigs (4 min after challenge), 1.621 ± 0.36 cm H2O/ml/sec; in the assay on sensitized guinea pigs (5 min after challenge) it was 1.4816 ± 0.32 cm H2O/ml/sec; in the assay with sensitized guinea pigs (10 min after challenge), 1.002 ± 0.14 cm H2O/ml/sec. In addition, the “Lung Resistance” value was 0.524 ± 0.08 cm H2O/ml/sec with sensitized guinea pigs (20 min after challenge), 0.354 ± 0.04 cm H2O/ml/sec in the assay with sensitized guinea pigs (30 min after challenge), 0.212 ± 0.020 cm H2O/ml/sec with sensitized guinea pigs (Baseline) and 0.223 ± 0.020 cm H2O/ml/sec with sensitized guinea pigs (OA/10 s).

Consider `C/C=C1/CCC2C3C(CC[C@]12C)[C@@]1(C)CC[C@H](O)CC1[C@@H](O)[C@@H]3O` (stereo partly shown) [Compound 333], for which the inhibition at 25 µM is 69% in assay [1] (setting [3]) and 71% in the assay on mouse mast cells (MC/9). Further, the inhibition at 30 µM in the assay on guinea pig ileum was 63%. The inhibition at 1 µM in the assay with NF-κB is 34%.

The values are drawn from patent publication US6949533B2, “6,7-Oxygenated steroids and uses related thereto” (Inflazyme Pharmaceuticals Ltd., priority 1996, dated 2005).
